Target: T1, COX-2 (Homo sapiens, UniProt P35354)
T1 construct: purchased Cayman Chemicals (Ann Arbor, Mich.)
T1 sequence (P35354 18-604): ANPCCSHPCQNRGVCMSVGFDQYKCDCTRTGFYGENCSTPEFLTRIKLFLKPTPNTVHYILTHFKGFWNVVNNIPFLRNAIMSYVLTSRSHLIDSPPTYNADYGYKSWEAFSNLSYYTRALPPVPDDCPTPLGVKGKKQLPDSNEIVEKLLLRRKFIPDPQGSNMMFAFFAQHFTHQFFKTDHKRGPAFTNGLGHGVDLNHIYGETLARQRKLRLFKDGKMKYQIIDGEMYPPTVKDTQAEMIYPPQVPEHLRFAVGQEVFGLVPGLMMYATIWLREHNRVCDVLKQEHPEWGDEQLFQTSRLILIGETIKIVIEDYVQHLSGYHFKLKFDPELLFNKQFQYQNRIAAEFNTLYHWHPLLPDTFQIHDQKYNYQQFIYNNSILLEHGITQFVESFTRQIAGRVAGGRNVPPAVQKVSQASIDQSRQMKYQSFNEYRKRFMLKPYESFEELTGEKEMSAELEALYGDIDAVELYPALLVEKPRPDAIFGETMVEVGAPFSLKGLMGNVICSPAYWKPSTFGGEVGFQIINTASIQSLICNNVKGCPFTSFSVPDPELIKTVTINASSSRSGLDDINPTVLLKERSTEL
Assay: COX-2 inhibition assay (Cayman Chemicals; prostaglandin production quantified by EIA)
Type: biochemical
Settings: in words; known compounds of SRB Extract 1
Method: All reagents and solutions were prepared according to the protocols established by Cayman Chemicals (Ann Arbor, Mich.) for the COX-1 and COX-2 inhibition assays. Two procedures were utilized to assess the COX-1/COX-2-specific and non-specific activities.
Prostaglandin Production Inhibition: Extracts were diluted in dimethylsulfoxide (DMSO), and then diluted in reaction buffer so that the final concentration of DMSO was 1%. Reactions were either run with COX-1 or COX-2 in the presence of Heme. Wells containing potential inhibitors (SRB extracts), non-inhibitor (100% activity) or background wells (heat inactivated enzyme) along with appropriate blanks were prepared. Solutions were placed in a 37° C. incubator for 15 minutes prior to running the reaction. Arachidonic acid was added and mixed and the reaction proceeded for 2 minutes. The reaction was stopped by addition of 1 M HCl to each well, then reducing the Prostaglandin H2 product to ProstaglandinG F2, which was quantified using EIA.
Quantification of Prostaglandin with EIA: The EIA assay plate was provided in the Cayman Chemicals screening kit. Aliquots, 50 μL, of the reaction products (PGF2) from prostaglandin production were added to their respective wells. […] The color development was quantified at 409 nm in a Tecan M200 microplate reader.

Row | Structure (SMILES) | COX-2 inhibition
1 | CC1(C)C[C@@H](O)C[C@@]2(C)OC(=O)C=C12 [epiloliode, Epiloliolide] | strong
2 | CCCc1ccccn1 [conyrin] | strong
